Results from patent publication US12545685B2 (Daiichi Sankyo Company, Limited, priority 2011, dated 2026).
Where a name gives a salt, the structure may show the parent alone.

Tests used:
[1] = system: human lung cancer-derived cell line NCI-H460 having wild-type p53; assay: Cell growth inhibition assay (MTT); format: cell-based; conditions: 72 h, NCI-H460 cells, 3 days culture, values given as ranges, read-out: 50% growth inhibition concentration (GI50 value)
Method: A cell growth inhibition assay was conducted using a human lung cancer-derived cell line NCI-H460 having wild-type p53.
NCI-H460 cells were suspended in a medium (RPMI1640 medium containing 10% fetal bovine serum) and the suspension was added in an amount of 500 cells/150 μl/well to a 96-well plate. A test compound was dissolved in DMSO and this solution was diluted with medium to prepare a sample solution (DMSO concentration: 1% or lower). On the next day, medium nonsupplemented with the test compound, or the sample solution, was added in an amount of 50 μl/well. Cells were then cultured at 37° ° C. for 3 days in a 5% CO2 atmosphere.
An MTT assay was conducted immediately after the nonsupplemented medium or the sample solution was added. Another MTT assay was conducted after culturing the cells for 3 days. The MIT assays were conducted as shown below.
A 5 mg/ml MTT (3-(4,5-dimethylthiazol-2-yl)-2,5-diphenyltetrazolium bromide, Sigma-Aldrich Co., M-2128) solution was prepared using a phosphate buffer solution (Dulbecco's Phosphate-buffered Saline). This MIT solution was added in an amount of 20 μl/well. Then the plate was cultured at 37° ° C. for 4 hours in a 5% CO2 atmosphere. The plate was centrifuged at 1200 rpm for 5 minutes and then the culture supernatant was removed by aspiration using a dispenser. DMSO was added in an amount of 150 μl/well to dissolve generated formazan. The plate was stirred using a plate mixer for uniform color development from each well. The absorbance of each well was measured at OD 540 nm and at a reference OD (660 nm) using a plate reader (SpectraMax PLUS384, Molecular Devices, CA, USA).
The OD value measured on the day of adding the sample solution was defined as S. The OD value measured three days after addition of the sample solution was defined as T. The OD value measured three days after addition of the DMSO dilution was defined as C. T/C (%) was determined at each concentration according to the formula shown below in order to prepare a dose response curve, from which 50% growth inhibition concentration (GI50 value) was calculated.

[2] = target: T1, Mdm2/p53 binding (GST-Mdm2 / His-p53) (Homo sapiens, UniProt Q00987, L33E); assay: Mdm2/p53 binding assay (HTRF, His-p53 and GST-Mdm2); conditions: His-p53 (aa 1-132) and GST-Mdm2 (aa 25-108, L33E) 6.25 nM each; 25°C, 1 hour; values given as ranges
T1 construct: Mdm2 partial protein having Mdm2 amino acids at positions 25 to 108
T1 sequence (Q00987 25-108 L33E): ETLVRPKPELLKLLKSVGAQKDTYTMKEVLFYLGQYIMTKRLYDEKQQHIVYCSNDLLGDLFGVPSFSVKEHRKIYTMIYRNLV
Procedure, shortened: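 Binding was detected by HTRF (ex 320 nm, em 620/665 nm) after 1 h at 25 °C, using Eu-cryptate anti-GST and XL665 anti-His antibodies. The protein pair was GST-Mdm2 (residues 25–108, L33E) with His-p53 (residues 1–132), each 6.25 nM in the protein dilution. T/C used no-compound control and no-p53 background, and IC50 came from sigmoid fitting.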

GI50 [1] [nM]	IC50 [2] [nM]	Structure (SMILES)
100 to 500		CC1(C)CCC2(CC1)N[C@@H](C(=O)N[C@@H]1CC[C@@H](C(O)CO)OC1)[C@H](c1ccnc(Cl)c1F)[C@]21C(=O)Nc2cc(Cl)ccc21 (single isomer, unassigned) [Example 90]
	50 to 100	CC1(C)CCC2(CC1)N[C@@H](C(=O)N[C@@H]1CC[C@@H](CNS(C)(=O)=O)OC1)[C@H](c1ccnc(Cl)c1F)[C@]21C(=O)Nc2cc(Cl)ccc21 [Example 166, (3′R, 4′S,5′R)-6″-chloro-4′-(2-chloro-3-fluoropyridin-4-yl)-4,4-dimethyl-N-[(3R,6S)-6-{[(methylsulfonyl)amino]methyl}tetrahydro-2H-pyran-3-yl]-2″-oxo-1″,2″-dihydrodispiro[cyclohexane-1,2′-pyrrolidine-3′,3″-indole]-5′-carboxamide]
	1 to 50	CN(C)C(=O)[C@@H]1CC[C@@H](NC(=O)[C@@H]2NC3(CC(CF)(CF)C3)[C@@]3(C(=O)Nc4cc(Cl)ccc43)[C@H]2c2ccnc(Cl)c2F)CO1 [Example 167, (3′R, 4′S,5′R)-6″-chloro-4′-(2-chloro-3-fluoropyridin-4-yl)-N-[(3R,6S)-6-(dimethylcarbamoyl)tetrahydro-2H-pyran-3-yl]-3,3-bis(fluoromethyl)-2″-oxo-1′″, 2′″-dihydrodispiro[cyclobutane-1,2′-pyrrolidine-3′,3″-indole]-5″-carboxamide]
	50 to 100	O=C(N[C@@H]1CC[C@@H](CO)OC1)[C@@H]1NC2(CC(CF)(CF)C2)[C@@]2(C(=O)Nc3cc(Cl)ccc32)[C@H]1c1cc(Cl)cc(Cl)c1 [Example 169, (3′R, 4′R, 5′R)-6″-chloro-4′-(3,5-dichlorophenyl)-3,3-bis(fluoromethyl)-N-[(3R,6S)-6-(hydroxymethyl)tetrahydro-2H-pyran-3-yl]-2″-oxo-1″,2″-dihydrodispiro[cyclobutane-1,2′-pyrrolidine-3′,3″-indole]-5′-carboxamide]
	50 to 100	C[C@@H](O)[C@@H]1CC[C@@H](NC(=O)[C@@H]2NC3(CC(CF)(CF)C3)[C@@]3(C(=O)Nc4cc(Cl)ccc43)[C@H]2c2ccnc(Cl)c2F)CO1 [Example 170, (3′R, 4′S,5′R)-6″-chloro-4′-(2-chloro-3-furopyridinyl-4-yl)-3,3-bis(fluoromethyl)-N-{(3R,6S)-6-[(1R)-1-hydroxyethyl]tetrahydro-2H-pyran-3-yl}-2″-oxo-1″,2″-dihydrodispiro[cyclobutane-1,2′-pyrrolidine-3′,3′-indole]-5′-carboxamide]
	50 to 100	Cn1cncc1CNC(=O)[C@@H]1NC2(CCC(C)(C)CC2)[C@@]2(C(=O)Nc3cc(Cl)ccc32)[C@H]1c1ccnc(Cl)c1F [Example 171, (3′R, 4′S, S′R)-6″-chloro-4′-(2-chloro-3-fluoropyridin-4-yl)-4,4-dimethyl-N-[(1-methyl-1H-imidazol-5-yl)methyl]-2″-oxo-1″,2″-dihydrodispiro[cyclohexane-1,2″-pyrrolidine-3′,3″-indole]-5′-carboxamide]
	1 to 50	O=C(N[C@@H]1CC[C@@H](CO)OC1)[C@@H]1NC2(CC(CF)(CF)C2)[C@@]2(C(=O)Nc3cc(Cl)ccc32)[C@H]1c1ccc(F)c(Cl)c1F [Example 172, (3′R,4′S,5′R)-6″-chloro-4′-(3-chloro-2,4-difluorophenyl)-3,3-bis(fluoromethyl)-N-[(3R,6S)-6-(hydroxymethyl)tetrahydro-2H-pyran-3-yl]-2′-oxo-1″,2″-dihydrodispiro[cyclobutane-1,2′-pyrrolidine-3′,3″-indole]-5′-carboxamide]
	50 to 100	COC(=O)[C@@H]1CC[C@@H](NC(=O)[C@@H]2NC3(CCC(C)(C)CC3)[C@@]3(C(=O)Nc4cc(Cl)ccc43)[C@H]2c2ccnc(Cl)c2F)CO1 [Example 173, Methyl (2S,5R)-5-({[(3′S,4′S,5′R)-6″-chloro-4′-(2-chloro-3-fluoropyridin-4-yl)-4,4-dimethyl-2″-oxo-1″,2″-dihydrodispiro[cyclohexane-1,2′-pyrrolidine-3′,3′-indole]-5′-yl]carbonyl}amino)tetrahydro-2H-pyran-2-carboxylate]
	50 to 100	O=C(N[C@@H]1CC[C@@H](CO)OC1)[C@@H]1NC2(CC(CF)(CF)C2)[C@@]2(C(=O)Nc3cc(Cl)ccc32)[C@H]1c1cccc(Cl)c1 [Example 175, (3′R, 4′R, 5′R)-6″-chloro-4′-(3-chlorophenyl)-3,3-bis(fluoromethyl)-N-[(3R,6S)-6-(hydroxymethyl)tetrahydro-2H-pyran-3-yl]-2″-oxo-1″,2″-dihydrodispiro[cyclobutane-1,2′-pyrrolidine-3′,3″-indole]-5′-carboxamide]
	1 to 50	O=C(N[C@@H]1CC[C@@H](CO)OC1)[C@@H]1NC2(CC(CF)(CF)C2)[C@@]2(C(=O)Nc3cc(Cl)ccc32)[C@H]1c1cc(F)cc(Cl)c1F [Example 176, (3′R, 4′S,5′R)-6″-chloro-4′-(3-chloro-2,5-difluorophenyl)-3,3-bis(fluoromethyl)-N-[(3R,6S)-6-(hydroxymethyl)tetrahydro-2H-pyran-3-yl]-2″-oxo-1″,2″-dihydrodispiro[cyclobutane-1,2′-pyrrolidine-3′,3″-indole]-5′-carboxamide]
	1 to 50	CC1(C)CCC2(CC1)N[C@@H](C(=O)NC1CCN(c3nnn[nH]3)CC1)[C@H](c1ccnc(Cl)c1F)[C@]21C(=O)Nc2cc(Cl)ccc21 [Example 178, (3′R, 4′S,5′8)-6″-chloro-4′-(2-chloro-3-fluoropyridin-4-yl)-4,4-dimethyl-2″-oxo-N-[1-(1H-tetrazol-5-yl)piperidin-4-yl]-1″,2″-dihydrodispiro[cyclohexane-1,2′-pyrrolidine-3′,3″-indole]-5′-carboxamide]
	1 to 50	CC1(C)CCC2(CC1)N[C@@H](C(=O)N[C@@H]1CC[C@@H](C(N)=O)OC1)[C@H](c1cccc(Cl)c1F)[C@]21C(=O)Nc2cc(Cl)ccc21 [Example 181, (3′R, 4′S,5′R)-N-[(3R, 6S)-6-carbamoyltetrahydro-2H-pyran-3-yl]-6″-chloro-4′-(3-chloro-2-fluorophenyl)-4,4-dimethyl-2″-oxo-1″,2″-dihydrodispiro[cyclohexane-1,2′-pyrrolidine-3′,3′-indole]-5′-carboxamide]
	1 to 50	CC1(C)CCC2(CC1)N[C@@H](C(=O)N[C@@H]1CCC(C)(C(N)=O)OC1)[C@H](c1ccnc(Cl)c1F)[C@]21C(=O)Nc2cc(Cl)ccc21 (stereo partly drawn) [Example 187, (3′R, 4′S,5′R)—N-[(3R)-6-carbamoyl-6-methyltetrahydro-2H-pyran-3-yl]-6″-chloro-4′-(2-chloro-3-fluoropyridin-4-yl)-4,4-dimethyl-2″-oxo-1″,2″-dihydrodispiro[cyclohexane-1,2′-pyrrolidine-3′,3″-indole]-5′-carboxamide]
	1 to 50	CC1(C)CCC2(CC1)N[C@@H](C(=O)NC1(C)CC[C@@H](C(N)=O)OC1)[C@H](c1ccnc(Cl)c1F)[C@]21C(=O)Nc2cc(Cl)ccc21 (stereo partly drawn) [Example 189, (3′R, 4′S,5′R)—N-[(6S)-6-carbamoyl-3-methyltetrahydro-2H-pyran-3-yl]-6″-chloro-4′-(2-chloro-3-fluoropyridin-4-yl)-4,4-dimethyl-2″-oxo-1′1,2″-dihydrodispiro[cyclohexane-1,2′-pyrrolidine-3′,3″-indole]-5′-Carboxamide]
	1 to 50	C[C@@H](O)[C@@H]1CC[C@@H](NC(=O)[C@@H]2NC3(CCC(C)(C)CC3)[C@@]3(C(=O)Nc4cc(Cl)ncc43)[C@H]2c2ccnc(Cl)c2F)CO1 [Example 192, 6″-Chloro-4′-(2-chloro-3-fluoropyridin-4-yl)-N-{(3R,6S)-6-[(1R)-1-hydroxyethyl]tetrahydro-2H-pyran-3-yl}-4,4-dimethyl-2″-oxo-1″,2″-dihydrodispiro[cyclohexane-1,2′-pyrrolidine-3′,3″-pyrrolo[3,2-c]pyridine]-5′-carboxamide]
	1 to 50	CC1(C)CCC2(CC1)N[C@@H](C(=O)N[C@@H]1CC[C@@H](C(N)=O)OC1)[C@H](c1ccnc(Cl)c1F)[C@]21C(=O)Nc2cc(Cl)ccc21 [Example 193, (3′R, 4′S, S′R)—N-[(3R,6S)-6-carbamoyltetrahydro-2H-pyran-3-yl]-6″-chloro-4′-(2-chloro-3-fluoropyridin-4-yl)-4,4-dimethyl-2″-oxo-1″,2″-dihydrodispiro[cyclohexane-1,2′-pyrrolidine-3′,3″-indole]-5′-carboxamide hydrochloride water/2-propanol (IPA) solvate]
